SMILES strings stand for the structures. A value given as a limit tells only on which side of the number the result lay.

This assay has as its system HCT116. In words: In vitro cytotoxicity measured by the cell colony formation assay. The format is cell-based. The note with it: HCT116 cells, 72 h drug incubation, colonies counted after 7 days; ID50 = drug concentration producing 50% inhibition of colony formation; read-out: IN VITRO ID 50 (nm) HCT116. Here is the method: In Vitro Cytotoxicity Measured by the Cell Colony Formation Assay
Four hundred cells (HCT116) were plated in 60 mm Petri dishes containing 2.7 mL of medium (modified McCoy's 5a medium containing 10% fetal bovine serum and 100 units/mL penicillin and 100 µg/mL streptomycin). The cells were incubated in a CO2 incubator at 37° C. for 5 h for attachment to the bottom of Petri dishes. The compounds identified in Example 2 were made up fresh in medium at ten times the final concentration, and then 0.3 mL of this stock solution was added to the 2.7 mL of medium in the dish. The cells were then incubated with drugs for 72 h at 37° C. At the end of incubation the drug-containing media were decanted, the dishes were rinsed with 4 mL of Hank's Balance Salt Solution (HBSS), 5 mL of fresh medium was added, and the dishes were returned to the incubator for colony formation. The cell colonies were counted using a colony counter after incubation for 7 days.
As to `C/C=C/C(=O)N[C@@H](c1ccco1)[C@@H](O)C(=O)O[C@H]1C[C@@]2(O)[C@@H](OC(=O)c3ccccc3)C3[C@](C)(C(=O)[C@H](OC(=O)CCC)C(=C1C)C2(C)C)[C@@H](O)C[C@H]1OC[C@@]31OC(C)=O` (stereo partly shown) [Compound 3994], the IC50 was less than 1 nM. The value for `CC(=O)O[C@@]12CO[C@@H]1C[C@H](O)[C@@]1(C)C(=O)[C@H](OC(=O)C3CC3)C3=C(C)[C@@H](OC(=O)[C@H](O)[C@@H](NC(=O)C=C(C)C)c4cccs4)C[C@@](O)([C@@H](OC(=O)c4ccccc4)C12)C3(C)C` (stereo partly shown) [Compound 4329] was less than 1 nM; that for `C/C=C/C(=O)N[C@@H](c1ccsc1)[C@@H](O)C(=O)O[C@H]1C[C@@]2(O)[C@@H](OC(=O)c3ccccc3)C3[C@](C)(C(=O)[C@H](OC(=O)C4CC4)C(=C1C)C2(C)C)[C@@H](O)C[C@H]1OC[C@@]31OC(C)=O` (stereo partly shown) [Compound 5040] was less than 1 nM. Under `CC(=O)O[C@@]12CO[C@@H]1C[C@H](O)[C@@]1(C)C(=O)[C@H](OC(=O)C(C)C)C3=C(C)[C@@H](OC(=O)[C@H](O)[C@@H](NC(=O)OC(C)(C)C)C4CCC4)C[C@@](O)([C@@H](OC(=O)c4ccccc4)C12)C3(C)C` (stereo partly shown) [Compound 2319] stands less than 10 nM; under `CC(=O)O[C@@]12CO[C@@H]1C[C@H](O)[C@@]1(C)C(=O)[C@H](OC(=O)C3CC3)C3=C(C)[C@@H](OC(=O)[C@H](O)[C@@H](NC(=O)c4cccs4)c4ccco4)C[C@@](O)([C@@H](OC(=O)c4ccccc4)C12)C3(C)C` (stereo partly shown) [Compound 3663], less than 1 nM; under `CC(=O)OC12COC1CC(O)C1(C)C(=O)C(OC(=O)c3cccs3)C3=C(C)C(OC(=O)C(O)C(NC(=O)OC(C)(C)C)c4ccco4)CC(O)(C(OC(=O)c4ccccc4)C21)C3(C)C` (stereo not shown) [Compound 1892], less than 1 nM.

For the compound `CCCC(=O)OC1C(=O)C2(C)C(O)CC3OCC3(OC(C)=O)C2C(OC(=O)c2ccccc2)C2(O)CC(OC(=O)C(O)C(NC(=O)OC(C)(C)C)C3CCC3)C(C)=C1C2(C)C` (stereo not shown) [Compound 1044], the IC50 is less than 1 nM. On to `CCC(=O)O[C@H]1C(=O)[C@@]2(C)C([C@H](OC(=O)c3ccccc3)[C@]3(O)C[C@H](OC(=O)[C@H](O)[C@@H](NC(=O)OC(C)(C)C)c4ccoc4)C(C)=C1C3(C)C)[C@]1(OC(C)=O)CO[C@@H]1C[C@@H]2O` (stereo partly shown) [Compound 0549], for which the IC50 is less than 10 nM. Consider `CCC(=O)O[C@H]1C(=O)[C@@]2(C)C([C@H](OC(=O)c3ccccc3)[C@]3(O)C[C@H](OC(=O)[C@H](O)[C@@H](NC(=O)OC(C)(C)C)c4ccncc4)C(C)=C1C3(C)C)[C@]1(OC(C)=O)CO[C@@H]1C[C@@H]2O` (stereo partly shown) [Compound 0521], for which the IC50 is less than 1 nM. `CC(=O)O[C@@]12CO[C@@H]1C[C@H](O)[C@@]1(C)C(=O)[C@H](OC(=O)C3CC3)C3=C(C)[C@@H](OC(=O)[C@H](O)[C@@H](NC(=O)c4ccccc4)c4cccs4)C[C@@](O)([C@@H](OC(=O)c4ccccc4)C12)C3(C)C` (stereo partly shown) [Compound 0919]: the IC50 is less than 1 nM. Regarding `CC(=O)O[C@@]12CO[C@@H]1C[C@H](O)[C@@]1(C)C(=O)[C@H](OC(=O)C3CC3)C3=C(C)[C@@H](OC(=O)[C@H](O)[C@@H](NC(=O)c4ccccc4)C4CC4)C[C@@](O)([C@@H](OC(=O)c4ccccc4)C12)C3(C)C` (stereo partly shown) [Compound 0923], the IC50 is less than 1 nM. With `C/C=C/C(=O)N[C@@H](c1ccoc1)[C@@H](O)C(=O)O[C@H]1C[C@@]2(O)[C@@H](OC(=O)c3ccccc3)C3[C@](C)(C(=O)[C@H](OC(=O)CC)C(=C1C)C2(C)C)[C@@H](O)C[C@H]1OC[C@@]31OC(C)=O` (stereo partly shown) [Compound 4888], the IC50 is less than 1 nM.

Take `CCC(=O)O[C@H]1C(=O)[C@@]2(C)C([C@H](OC(=O)c3ccccc3)[C@]3(O)C[C@H](OC(=O)[C@H](O)[C@@H](NC(=O)OC(C)(C)C)c4cccs4)C(C)=C1C3(C)C)[C@]1(OC(C)=O)CO[C@@H]1C[C@@H]2O` (stereo partly shown) [Compound 0550]: the IC50 is less than 10 nM. As to `CCC(=O)O[C@H]1C(=O)[C@@]2(C)C([C@H](OC(=O)c3ccccc3)[C@]3(O)C[C@H](OC(=O)[C@H](O)[C@@H](NC(=O)OCC(C)C)c4ccsc4)C(C)=C1C3(C)C)[C@]1(OC(C)=O)CO[C@@H]1C[C@@H]2O` (stereo partly shown) [Compound 4711], the IC50 was less than 10 nM. In the case of `CC(=O)O[C@@]12CO[C@@H]1C[C@H](O)[C@@]1(C)C(=O)[C@H](OC(=O)C3CC3)C3=C(C)[C@@H](OC(=O)[C@H](O)[C@H](C=C(C)C)NC(=O)OC(C)(C)C)C[C@@](O)([C@@H](OC(=O)c4ccccc4)C12)C3(C)C` (stereo partly shown) [Compound 0838], the IC50 was less than 1 nM.

As to `CC(=O)O[C@@]12CO[C@@H]1C[C@H](O)[C@@]1(C)C(=O)[C@H](OC(=O)C(C)C)C3=C(C)[C@@H](OC(=O)[C@H](O)[C@@H](NC(=O)OC(C)(C)C)C(C)C)C[C@@](O)([C@@H](OC(=O)c4ccccc4)C12)C3(C)C` (stereo partly shown) [Compound 2306], the IC50 is less than 10 nM.

As to `CCC(=O)O[C@H]1C(=O)[C@@]2(C)C([C@H](OC(=O)c3ccccc3)[C@]3(O)C[C@H](OC(=O)[C@H](O)[C@@H](NC(=O)c4ccccc4)c4ccccc4)C(C)=C1C3(C)C)[C@]1(OC(C)=O)CO[C@@H]1C[C@@H]2O` (stereo partly shown) [Compound 0748], the IC50 was less than 10 nM. Under `CCC(=O)O[C@H]1C(=O)[C@@]2(C)C([C@H](OC(=O)c3ccccc3)[C@]3(O)C[C@H](OC(=O)[C@H](O)[C@@H](NC(=O)c4ccccc4)c4ccncc4)C(C)=C1C3(C)C)[C@]1(OC(C)=O)CO[C@@H]1C[C@@H]2O` (stereo partly shown) [Compound 0659] stands less than 1 nM; under `C/C=C/C(=O)O[C@H]1C(=O)[C@@]2(C)C([C@H](OC(=O)c3ccccc3)[C@]3(O)C[C@H](OC(=O)[C@H](O)[C@@H](NC(=O)OC(C)(C)C)c4ccncc4)C(C)=C1C3(C)C)[C@]1(OC(C)=O)CO[C@@H]1C[C@@H]2O` (stereo partly shown) [Compound 2366], less than 1 nM.

With `C/C=C/C(=O)O[C@H]1C(=O)[C@@]2(C)C([C@H](OC(=O)c3ccccc3)[C@]3(O)C[C@H](OC(=O)[C@H](O)[C@@H](NC(=O)OC(C)(C)C)c4ccsc4)C(C)=C1C3(C)C)[C@]1(OC(C)=O)CO[C@@H]1C[C@@H]2O` (stereo partly shown) [Compound 2408], the IC50 is less than 1 nM. Under `CC(=O)O[C@@]12CO[C@@H]1C[C@H](O)[C@@]1(C)C(=O)[C@H](OC(=O)C3CC3)C3=C(C)[C@@H](OC(=O)[C@H](O)[C@@H](NC(=O)OCC(C)C)c4ccsc4)C[C@@](O)([C@@H](OC(=O)c4ccccc4)C12)C3(C)C` (stereo partly shown) [Compound 5011] stands less than 10 nM; under `CC(=O)O[C@@]12CO[C@@H]1C[C@H](O)[C@@]1(C)C(=O)[C@H](OC(=O)C=C(C)C)C3=C(C)[C@@H](OC(=O)[C@H](O)[C@H](C=C(C)C)NC(=O)OC(C)(C)C)C[C@@](O)([C@@H](OC(=O)c4ccccc4)C12)C3(C)C` (stereo partly shown) [Compound 2455], less than 10 nM; under `CCC(=O)O[C@H]1C(=O)[C@@]2(C)C([C@H](OC(=O)c3ccccc3)[C@]3(O)C[C@H](OC(=O)[C@H](O)[C@@H](NC(=O)c4ccccc4)C4CCC4)C(C)=C1C3(C)C)[C@]1(OC(C)=O)CO[C@@H]1C[C@@H]2O` (stereo partly shown) [Compound 0720], less than 10 nM. With `CCCC(=O)O[C@H]1C(=O)[C@@]2(C)C([C@H](OC(=O)c3ccccc3)[C@]3(O)C[C@H](OC(=O)[C@H](O)[C@@H](NC(=O)OCC(C)C)c4ccco4)C(C)=C1C3(C)C)[C@]1(OC(C)=O)CO[C@@H]1C[C@@H]2O` (stereo partly shown) [Compound 3110], the IC50 is less than 1 nM. The value for `CCCC(=O)O[C@H]1C(=O)[C@@]2(C)C([C@H](OC(=O)c3ccccc3)[C@]3(O)C[C@H](OC(=O)[C@H](O)[C@@H](NC(=O)c4cccs4)c4cccs4)C(C)=C1C3(C)C)[C@]1(OC(C)=O)CO[C@@H]1C[C@@H]2O` (stereo partly shown) [Compound 3408] was less than 1 nM.

For the origin of these results see patent publication US7524869B2, “Taxanes having a C10 ester substituent” (Florida State University Research Foundation, Inc., priority 2000, dated 2009).
